Earlier results, collected in patent publication US20110305747A1, “COMBINATION OF DAPSONE WITH OTHER ANTI-ACNE AGENTS” (ALLERGAN, INC., priority 2009, published 2011).
In brackets after ≈: the same amount, converted by molar mass.

What was measured:
[1] = system: CRABPII (cellular retinol-binding protein II)
[2] = system: spontaneous comedones; settings: Rhino mouse containing a high density of spontaneous comedones (Allec et al, 1997)
[3] = system: P. acnes

| Binding to CRABPII [1] | mean Cmax of adapalene (0.3% adapalene gel on face, chest and back, approx. 2 mg/cm2, Day 10 of treatment, 15 of 16 patients quantifiable (LOQ=0.1 ng/mL)) | Mean AUC0-24hr (0.3% adapalene gel, approx. 2 mg/cm2, Day 10, 15 of the 16 patients) | Terminal apparent half-life, mean (0.3% adapalene gel, 15 of 16 patients) | Detection in plasma 72 hours after the last application (0.3% adapalene gel, all but one subject) | MIC90 against P. acnes [3] | SMILES | Comedolytic activity [2] |
| --- | --- | --- | --- | --- | --- | --- | --- |
| does not bind | 0.553 ± 0.466 ng/mL | 8.37 ± 8.46 ng·h/mL | 17.2 ± 10.2 h | not detected | – | COc1ccc(-c2ccc3cc(C(=O)O)ccc3c2)cc1C12CC3CC(CC(C3)C1)C2 [adapalene] | comedolytic activity |
| – | – | – | – | – | 8 mg/L (≈ 32.2 µM) | Nc1ccc(S(=O)(=O)c2ccc(N)cc2)cc1 [dapsone] | – |
